Experiments:
[1] = system: Cox-2 activity in IEC6 rat intestinal epithelial cells; assay: TNFα-induced PGE2 production, ELISA; format: cell-based; details: 100 ng of TNFα/mL 18 hours
Description: (§1) FIG. 6. Inhibition of TNFα-induced Cox-2 activity by Compound 62. Rat IEC6 cells (Panel A) or human endothelial cells (Panel B) were incubated for 18 hours with dimethylsulfoxide (DMSO) as a solvent control, or 100 ng of TNFα/mL in the presence of DMSO or […] of Compound 62. Levels of PGE2 secreted into the medium were quantified by ELISA. Values represent the mean±sd for triplicate samples in a typical experiment.
(§2) To determine the effects of the SK inhibitors on Cox-2 activity, an ELISA assay was used to measure PGE2 production by IEC6 rat intestinal epithelial cells and human endothelial cells treated with TNFα.

[2] = system: Cox-2 activity in human endothelial cells; assay: TNFα-induced PGE2 production, ELISA; format: cell-based; details: 100 ng of TNFα/mL 18 hours
Description: as §1, §2

O=C(NCc1ccncc1)C12CC3CC(C1)CC(c1ccc(Cl)cc1)(C3)C2 [Compound 62, 3-(4-Chloro-phenyl)-adamantane-1-carboxylic acid (pyridin-4-ylmethyl)-amide]
induction of Cox-2 activity by TNFα (PGE2 production) [1]: strongly suppressed | induction of Cox-2 activity by TNFα (PGE2 production) [2]: strongly suppressed
